From patent US20050234119A1, “Antiparasitical agents and methods for treating, preventing and controlling external parasites in animals” (priority 2004, published 2005)

What was measured:
[1] = In vitro degradation studies of the thioamide derivative of fipronil in CH3CN/H2O under degradation agents; type: physicochemical
Experimental: A solution containing thioamide derivative of fipronil in a solution of CH3CN/H2O (50:50 v/v) and the solution was subjected to the following degradation agents: 0.5 N HCl; 0.5 N NaOH; 5% H2O2; UV light; fluorescent light and heat (65° C.).

[2] = Concentration in blood plasma of dogs after oral solution of the thioamide derivative of fipronil; type: in vivo
Experimental: An oral formulation (solution) comprising 100 mg/ml of thioamide derivatives of fipronil dissolved in 60:40 propylene glycol: glycerol formal was administered to dogs and the concentration of fipronil in blood plasma measured at 6 hours, day 1, day 2, and day 7 and is presented below

[3] = Concentration in the fur of a dog after topical spot-on solution of the thioamide; type: in vivo; conditions: 0.1 ml/kg
Experimental: A topical spot-on solution of the thioamide solution containing 100 mg/ml of thioamide and diethylene glycol monoethyl ether was applied to the fur of a dog at the dose rate of 0.1 ml/kg of body weight. The concentration of fipronil in the fur was measured on day 2 and day 7.

amounts of fipronil formed ([1]; 0.5 N HCl, 4 days): negligible | thioamide derivative degraded ([1]; 0.5 N HCl, in 4 days, solution of CH3CN/H2O (50:50 v/v)): 2.7% | fipronil formed ([1]; 0.5 N NaOH, 1 hour): hour, but no fipronil was formed | fipronil sulfone formed ([1]; 5% H2O2, 1.5 hours): sulfone was formed. | degraded to fipronil ([1]; Fluorescent light, in 4 days, CH3CN/H2O (50:50 v/v)): 23% degraded to fipronil in 4 days. | concentration in blood plasma ([2]; Pre-treatment, oral solution 100 mg/ml thioamide derivative in 60:40 propylene glycol:glycerol formal): 0.0 µg/g | concentration at 6 h ([2]; dog, plasma, Day 0.25 (6 hours), oral solution 100 mg/ml thioamide derivative): 262000 ng/g | concentration at 1 day ([2]; dog, plasma, Day 1, oral solution 100 mg/ml thioamide derivative): 162000 ng/g | concentration at 2 day ([2]; dog, plasma, Day 2, oral solution 100 mg/ml thioamide derivative): 129000 ng/g | concentration at 7 day ([2]; dog, plasma, Day 7, oral solution 100 mg/ml thioamide derivative): 54600 ng/g | concentration at 2 day ([3]; Day 2, topical spot-on 100 mg/ml thioamide in diethylene glycol monoethyl ether): 363000 ng/g | concentration at 7 day ([3]; Day 7, topical spot-on 100 mg/ml thioamide in diethylene glycol monoethyl ether): 59300 ng/g
SMILES: NC(=S)c1nn(-c2c(Cl)cc(C(F)(F)F)cc2Cl)c(N)c1[S+]([O-])C(F)(F)F (stereo not shown) [thioamide derivative of fipronil]
stability in acid ([1]; 0.5 N HCl): Thioamide derivative stable in acid with only | thioamide derivative degraded ([1]; 0.5 N NaOH, in 1 hour, CH3CN/H2O (50:50 v/v)): 95% if the thioamide derivative degraded in 1 | fipronil formed ([1]; 5% H2O2, 1.5 hours): 1.5 hours but no fipronil was formed; fipronil | thioamide derivative degraded ([1]; 5% H2O2, in 1.5 hours, CH3CN/H2O (50:50 v/v)): 100% of the thioamide derivation degraded in | degraded to fipronil ([1]; Heat (65° C.), in 4 days, CH3CN/H2O (50:50 v/v)): 20% of the thioamide derivation degraded to | thioamide derivative degraded ([1]; UV light, in 1 hour, CH3CN/H2O (50:50 v/v)): 24% of the thioamide derivation degraded in 1 | in-vivo degradation into fipronil ([2]; oral solution): degrades into fipronil in-vivo in amounts that are sufficient for efficacy
